Assay results from US7407775B2, “Method for identifying Listeria monocytogenes and culture medium” (Biomerieux S.A., priority 2000, dated 2008).

Assays:
Type in all cases: cell-based
Parameters in all cases: key: —: the symbol “-” corresponds to the absence of color or intensity; 0 corresponds to no activity; 0.1 corresponds to a trace of color; 0.5 corresponds to very pale coloration; 1 corresponds to clear but low-intensity coloration; 1.5 corresponds to a degree of coloration intermediate between scores 1 and 2; 2 corresponds to clear coloration of moderate intensity; 2.5 corresponds to a degree of coloration intermediate between scores 2 and 3; 3 corresponds to intense coloration; 3.5 corresponds to a degree of coloration intermediate between scores 3 and 4; 4 corresponds to very intense coloration
Conditions in all cases: 37° C., substrate 250 mg/l
[1] = system: Listeria innocua ATCC 33090; assay: Experiment 2: octanoate esterase substrates with different Indoxyl-based chromogenic markers
Description: (§1) In Table 1 above, as in the following Tables, C represents the color of the colonies after incubation, I represents the intensity of the color, and the symbol “-” corresponds to the absence of color or intensity; finally, IT defines the incubation time. It should be noted that the intensity of the color is scored on an arbitrary scale but one which is consistent for all the biological specimens and media tested. This scale is valid for this experiment as well as all those that follow. It can be defined in the following way: • 0 corresponds to no activity, • 0.1 corresponds to a trace of color, • 0.5 corresponds to very pale coloration, • 1 corresponds to clear but low-intensity coloration, • 1.5 corresponds to a degree of coloration intermediate between scores 1 and 2, • 2 corresponds to clear coloration of moderate intensity, • 2.5 corresponds to a degree of coloration intermediate between scores 2 and 3, • 3 corresponds to intense coloration, • 3.5 corresponds to a degree of coloration intermediate between scores 3 and 4, • 4 corresponds to very intense coloration.
(§2) A stock solution of each substrate at a concentration of 40 g/l was made up in a mixture of 40% Dimethylsulfoxide and 60% Tween 20. An appropriate volume was added to four Columbia-type media while cooling to give a final substrate concentration of 250 mg/l. These dishes were divided into three areas and then each area was inoculated with a suspension (density=0.5 McFarland) of microorganisms taken from either the Applicant's own collection or the ATCC. The dishes were incubated for 48 hours at 37° C. The colonies which grew were examined by eye after 24 and 48 hours of incubation. Both the color and the intensity of the color of the colonies were recorded.

Listeria ivanovii 025 [2] = assay: as above
Description: as §1, §2

Listeria ivanovii 018 = assay: as above
Description: as §1, §2

Listeria innocua 166 = assay: as above
Description: as §1, §2

Listeria innocua 171 = assay: as above
Description: as §1, §2

Listeria ivanovii 025 [3] = assay: Experiment 1: esterase substrates, same chromogenic marker, fatty acids of different chain lengths
Description: as §2, with “Polyoxyethylenesorbitan Monolaurate (Tween 20).” for “Tween 20.”, “three” for “four”
as §1

C (color of the colonies) ([1]; IT 24 h)	C (color of the colonies) ([1]; IT 48 h)	C (color of the colonies) (Listeria innocua 166; IT 24 h)	C (color of the colonies) (Listeria innocua 166; IT 48 h)	C (color of the colonies) (Listeria innocua 171; IT 48 h)	Compound	I (intensity of the color) ([1]; IT 24 h)	I (intensity of the color) ([1]; IT 48 h)	C (color of the colonies) (Listeria ivanovii 025 [2]; IT 24 h)	I (intensity of the color) (Listeria ivanovii 025 [2]; IT 24 h)	C (color of the colonies) (Listeria ivanovii 025 [2]; IT 48 h)	I (intensity of the color) (Listeria ivanovii 025 [2]; IT 48 h)	C (color of the colonies) (Listeria ivanovii 018; IT 24 h)	I (intensity of the color) (Listeria ivanovii 018; IT 24 h)	C (color of the colonies) (Listeria ivanovii 018; IT 48 h)	I (intensity of the color) (Listeria ivanovii 018; IT 48 h)	I (intensity of the color) (Listeria innocua 166; IT 24 h)	I (intensity of the color) (Listeria innocua 166; IT 48 h)	C (color of the colonies) (Listeria innocua 171; IT 24 h)	I (intensity of the color) (Listeria innocua 171; IT 24 h)	I (intensity of the color) (Listeria innocua 171; IT 48 h)	also measured
purple	purple	purple	purple	purple	CCCCCCCC(=O)Oc1c[nH]c2cc(Cl)c(Br)cc12 [Magenta-C8, 5-Bromo-6-chloro-3-indolyl octanoate]	1	2	—	—	—	—	—	—	—	—	2	3	purple	0.5	3	
turquoise	turquoise	turquoise	turquoise	turquoise	CCCCCCCC(=O)Oc1c[nH]c2ccc(Br)c(Cl)c12 [X-C8, 5-Bromo-4-chloro-3-indolyl octanoate]	0.3	0.5	—	—	—	—	—	—	—	—	0.3	0.5		—	0.3	

More lines, now with the values behind:

Compound	C (color of the colonies) ([1]; IT 24 h)	C (color of the colonies) ([1]; IT 48 h)	C (color of the colonies) (Listeria innocua 166; IT 24 h)	C (color of the colonies) (Listeria innocua 166; IT 48 h)	C (color of the colonies) (Listeria innocua 171; IT 48 h)	I (intensity of the color) ([1]; IT 24 h)	I (intensity of the color) ([1]; IT 48 h)	C (color of the colonies) (Listeria ivanovii 025 [2]; IT 24 h)	I (intensity of the color) (Listeria ivanovii 025 [2]; IT 24 h)	C (color of the colonies) (Listeria ivanovii 025 [2]; IT 48 h)	I (intensity of the color) (Listeria ivanovii 025 [2]; IT 48 h)	C (color of the colonies) (Listeria ivanovii 018; IT 24 h)	I (intensity of the color) (Listeria ivanovii 018; IT 24 h)	C (color of the colonies) (Listeria ivanovii 018; IT 48 h)	I (intensity of the color) (Listeria ivanovii 018; IT 48 h)	I (intensity of the color) (Listeria innocua 166; IT 24 h)	I (intensity of the color) (Listeria innocua 166; IT 48 h)	C (color of the colonies) (Listeria innocua 171; IT 24 h)	I (intensity of the color) (Listeria innocua 171; IT 24 h)	I (intensity of the color) (Listeria innocua 171; IT 48 h)	also measured
CCCCCCCC(=O)Oc1c[nH]c2ccc(Br)cc12 [Blue-C8, 5-Bromo-3-indolyl octanoate]	gray	gray	gray	gray	gray	0.3	0.5	—	—	—	—	—	—	—	—	0.3	1	—	—	0.3	C (color of the colonies) (Listeria ivanovii 025 [3]; IT 24 h): —; I (intensity of the color) (Listeria ivanovii 025 [3]; IT 24 h): —; C (color of the colonies) (Listeria ivanovii 025 [3]; IT 48 h): —; I (intensity of the color) (Listeria ivanovii 025 [3]; IT 48 h): —
CCCCCCCCC(=O)Oc1c[nH]c2ccc(Br)cc12 [Blue-C9, 5-Bromo-3-indolyl nonanoate]																					C (color of the colonies) (Listeria ivanovii 025 [3]; IT 24 h): —; I (intensity of the color) (Listeria ivanovii 025 [3]; IT 24 h): —; C (color of the colonies) (Listeria ivanovii 025 [3]; IT 48 h): —; I (intensity of the color) (Listeria ivanovii 025 [3]; IT 48 h): —
CCCCCCCCCC(=O)Oc1c[nH]c2ccc(Br)cc12 [Blue-C10, 5-Bromo-3-indolyl decanoate]																					C (color of the colonies) (Listeria ivanovii 025 [3]; IT 24 h): —; I (intensity of the color) (Listeria ivanovii 025 [3]; IT 24 h): —; C (color of the colonies) (Listeria ivanovii 025 [3]; IT 48 h): —; I (intensity of the color) (Listeria ivanovii 025 [3]; IT 48 h): —
CCCCCCCC(=O)Oc1c[nH]c2cc(Cl)ccc12 [Pink-C8, 6-Chloro-3-indolyl octanoate]	—	pink	—	pink	pink	—	0.5	—	—	—	—	—	—	—	—	—	0.3	—	—	0.3	
